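Test compounds were applied to cells in 96-well plates for 48 hours at 5 doses. Abbreviation: GI50, concentration required for 50% inhibition of growth.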 Activity calls are given as the source filed them. Cut-off read from the data, not from the text of the source: active = GI50 up to about 1.1 µM and inactive = higher.
Tests used:
Test in all cases: DTP human tumour cell line panel, 48 h
786-0 = tested on: 786-0
A498 = tested on: A498
A549 = tested on: A549
ACHN = tested on: ACHN
BT-549 = tested on: BT-549
CAKI-1 = tested on: CAKI-1
CCRF-CEM = tested on: CCRF-CEM
COLO 205 = tested on: COLO 205
DU-145 = tested on: DU-145
EKVX = tested on: EKVX
HCC 2998 = tested on: HCC 2998
HCT-116 = tested on: HCT-116
HCT-15 = tested on: HCT-15
HL-60 = tested on: HL-60
HOP-62 = tested on: HOP-62
HOP-92 = tested on: HOP-92
HT-29 = tested on: HT-29
Hs-578T = tested on: Hs-578T
IGROV-1 = tested on: IGROV-1
K562 = tested on: K562
KM12 = tested on: KM12
LOX IMVI = tested on: LOX IMVI
M14 = tested on: M14
MCF7 = tested on: MCF7
MDA-MB-231 = tested on: MDA-MB-231
MDA-MB-435 = tested on: MDA-MB-435
MDA-N = tested on: MDA-N
MOLT-4 = tested on: MOLT-4
NCI-H226 = tested on: NCI-H226
NCI-H23 = tested on: NCI-H23
NCI-H460 = tested on: NCI-H460
NCI-H522 = tested on: NCI-H522
NCI/ADR-RES = tested on: NCI/ADR-RES
OVCAR-3 = tested on: OVCAR-3
OVCAR-5 = tested on: OVCAR-5
OVCAR-8 = tested on: OVCAR-8
PC-3 = tested on: PC-3
RPMI-8226 = tested on: RPMI-8226
RXF 393 = tested on: RXF 393
SF-268 = tested on: SF-268
SF-295 = tested on: SF-295
SF-539 = tested on: SF-539
SK-MEL-28 = tested on: SK-MEL-28
SK-MEL-2 = tested on: SK-MEL-2
SK-MEL-5 = tested on: SK-MEL-5
SK-OV-3 = tested on: SK-OV-3
SN12C = tested on: SN12C
SNB-19 = tested on: SNB-19
SNB-75 = tested on: SNB-75
SW-620 = tested on: SW-620
T47D = tested on: T47D
TK-10 = tested on: TK-10
U-251 = tested on: U-251
UACC-257 = tested on: UACC-257
UACC-62 = tested on: UACC-62
UO-31 = tested on: UO-31

## C[C@@H](CC(=O)O)OC1OC(COC(=O)C(C)(C)C)C(OC(=O)C(C)(C)C)C(OC(=O)C(C)(C)C)C1OC(=O)C(C)(C)C (stereo partly specified)
786-0
  GI50: 66.2 µM (inactive)
A498
  GI50: > 100 µM (inactive)
A549
  GI50: 45 µM (inactive)
ACHN
  GI50: 22.6 µM (inactive)
BT-549
  GI50: 57 µM (inactive)
CAKI-1
  GI50: 62.2 µM (inactive)
CCRF-CEM
  GI50: 26.5 µM (inactive)
COLO 205
  GI50: 32.8 µM (inactive)
DU-145
  GI50: 59.6 µM (inactive)
EKVX
  GI50: 93.5 µM (inactive)
HCC 2998
  GI50: 35 µM (inactive)
HCT-116
  GI50: 47.5 µM (inactive)
HCT-15
  GI50: 32.4 µM
HL-60
  GI50: 21.9 µM (inactive)
HOP-62
  GI50: > 100 µM (inactive)
HOP-92
  GI50: 38.1 µM (inactive)
HT-29
  GI50: 39 µM (inactive)
Hs-578T
  GI50: 58.7 µM (inactive)
IGROV-1
  GI50: 72.3 µM (inactive)
K562
  GI50: 34.4 µM (inactive)
KM12
  GI50: 45.7 µM (inactive)
LOX IMVI
  GI50: 97.3 µM (inactive)
M14
  GI50: > 100 µM (inactive)
MCF7
  GI50: 41.2 µM (inactive)
MDA-MB-231
  GI50: > 100 µM (inactive)
MDA-MB-435
  GI50: 53.3 µM (inactive)
MDA-N
  GI50: 69.7 µM (inactive)
MOLT-4
  GI50: 38.6 µM (inactive)
NCI-H226
  GI50: > 100 µM (inactive)
NCI-H23
  GI50: 27.2 µM (inactive)
NCI-H460
  GI50: 29 µM (inactive)
NCI-H522
  GI50: 57 µM (inactive)
NCI/ADR-RES
  GI50: > 100 µM (inactive)
OVCAR-3
  GI50: 64.7 µM (inactive)
OVCAR-5
  GI50: > 100 µM (inactive)
OVCAR-8
  GI50: 81.7 µM (inactive)
PC-3
  GI50: 46.9 µM (inactive)
RPMI-8226
  GI50: 26.4 µM (inactive)
RXF 393
  GI50: 45.3 µM (inactive)
SF-268
  GI50: 50.7 µM (inactive)
SF-295
  GI50: 50.5 µM (inactive)
SF-539
  GI50: 52.8 µM (inactive)
SK-MEL-28
  GI50: 89.7 µM (inactive)
SK-MEL-2
  GI50: 49 µM (inactive)
SK-MEL-5
  GI50: 29.6 µM (inactive)
SK-OV-3
  GI50: 73.6 µM (inactive)
SN12C
  GI50: 48.2 µM (inactive)
SNB-19
  GI50: 28.2 µM (inactive)
SNB-75
  GI50: 72.8 µM (inactive)
SW-620
  GI50: 45.4 µM (inactive)
T47D
  GI50: 45.9 µM (inactive)
TK-10
  GI50: 99.3 µM (inactive)
U-251
  GI50: 40 µM (inactive)
UACC-257
  GI50: > 100 µM (inactive)
UACC-62
  GI50: 71.9 µM (inactive)
UO-31
  GI50: > 10 µM (inactive)

Reference: ChEMBL document CHEMBL1201862, “PubChem BioAssay data set” (2004)
